Where “and” joins values, the source holds several entries; their conditions need not be identical. Identical values can stand only once. Marks after values point to notes of the source that are not given here.
Legend:
Format in all cases: in vivo
[1] = Mouse CAIA, body weight and tolerability (Example 4)
Description: Balb C mice (n=10 per cohort) were used to determine the efficacy of Factor H (FH) during transplant rejection. The mice were treated with ArthritoMAb (anti-collagen) antibody cocktail (2 mg, i.v.) on day 1, followed 7 days later with an injection of LPS (50 μg, i.p.). On day 8, hind paw volumes were measured for each animal and distributed to various treatment groups.
Hind paw volumes were measured on day 8, 11, 12, 13, 15, 19 and 22 (endpoint). The age at start date was 7 to 9 weeks. Body weights were measured bi-weekly to the endpoint (Table 4). At the endpoint, tissue samples were processed for histology and submitted to a pathologist for independent analysis. Sampling 1 was performed at the endpoint. The hind limbs were preserved in 10% formalin. Sampling 2 was performed at the endpoint for group 4 animals. Blood was collected by terminal cardiac puncture. The blood was processed for anti-coagulant. The kidneys were additionally preserved in formalin and followed with 70% EtOH. Samples were scored for inflammation, pannus (granulation tissue), cartilage damage, bone resorption and exostosis (Table 5).

[2] = system: collagen antibody-induced arthritis in Balb C mice; assay: Mouse CAIA, clinical score (Example 4); design: key to Mean Maximum Clinical Score: scored 0 to 60, sum of 4 limbs
[3] = system: collagen antibody-induced arthritis in Balb C mice; assay: Mouse CAIA, hind paw volume / footpad swelling (Example 4); design: Mean Disease Burden / Hind Limb Volume, Mean Diff. / Total Disease, Mean Diff.: unit not given here; conditions: for Total Footpad Thickness, Day of Study 8: day 8; for Total Footpad Thickness, Day of Study 11: day 11; for Total Footpad Thickness, Day of Study 12: day 12; for Total Footpad Thickness, Day of Study 13: day 13; for Total Footpad Thickness, Day of Study 15: day 15; for Total Footpad Thickness, Day of Study 19: day 19; for Total Footpad Thickness, Day of Study 22: day 22; for % Disease Suppression: footpad thickness AUC vs vehicle; for Total Disease Burden (AUC): footpad thickness days 8-22, in mL·day
[4] = system: collagen antibody-induced arthritis in Balb C mice; assay: Mouse CAIA, histopathology of hind limbs (ankle, H & E) (Example 4); conditions: for Composite Histopathaligy Score / Score From H & E, Bone Resorption / Score From H & E, Cartilage Damage / Score From H & E, Inflammation / Score From H & E, Pannus / Score From H & E, Periosteal Exostotic Changes: ankle; for Score From H & E, Bone Resorption / Score From H & E, Cartilage Damage / Score From H & E, Inflammation / Score From H & E, Pannus / Score From H & E, Periosteal Exostotic Changes: score 0 = normal to 5 = severe
[5] = Dunn's Multiple Comparison Test, G1 vehicle vs treatment
[6] = Dunnett's Multiple Comparison Test, G1 vehicle vs treatment
[7] = Dunnett's Multiple Comparison Test, vehicle vs treatment
[8] = individual animal, listed as Group 3

Substance: Etanercept
- Body Weight, Wt (g), Mean ([1]; day 1, group mean n=10, before dosing start (day 8)): 17.3 g
- Body Weight, Wt ([1]; day 1, individual animal, before dosing start (day 8)): 16.7 g and 17.3 g and 16.5 g (2×) and 18 g (2×) and 17.7 g and 17.5 g and 16.8 g and 17.6 g
- Body Weight, Wt (g), Mean ([1]; day 5, group mean n=10, before dosing start (day 8)): 17.7 g
- Body Weight, Wt ([1]; day 5, individual animal, before dosing start (day 8)): 18.5 g (2×) and 17.4 g (2×) and 18.2 g and 16.6 g and 17.3 g and 17 g and 18.1 g and 18.3 g
- Body Weight, Wt (g), Mean ([1]; day 8, group mean n=10): 16.3 g
- Body Weight, Wt ([1]; day 8, individual animal): 16.5 g and 16.4 g (2×) and 16.1 g (2×) and 15.7 g (2×) and 16.2 g and 16.6 g and 17.1 g
- Body Weight, Wt (g), Mean ([1]; day 12, group mean n=10): 17 g
- Body Weight, Wt ([1]; day 12, individual animal): 16.6 g and 16.7 g (2×) and 17.8 g (2×) and 17.9 g and 15.5 g and 17.1 g and 17.7 g
- Body Weight, Wt (g), Mean ([1]; day 15, group mean n=10): 17.4 g
- Body Weight, Wt ([1]; day 15, individual animal): 17.1 g and 17.8 g and 17 g and 17.7 g and 16.6 g and 18 g (2×) and 17.9 g and 16.2 g and 17.6 g
- Body Weight, Wt (g), Mean ([1]; day 19, group mean n=10): 17.9 g
- Body Weight, Wt ([1]; day 19, individual animal): 18.3 g (2×) and 17.7 g and 18.4 g and 14.6 g and 18.8 g and 18.6 g (2×) and 16.5 g and 19.1 g
- Body Weight, Wt (g), Mean ([1]; day 22, group mean n=10): 18.1 g
- Body Weight, Wt ([1]; day 22, individual animal): 18.8 g and 18.3 g and 17.8 g and 18.7 g and 15.8 g and 18 g and 18.2 g and 17.3 g and 18.6 g and 19.6 g
- Mean Body Weigh at Nadir ([1]; lowest group mean body weight as % change from day 1, vehicle −8.0%): −5.7%
- Clinical Score, Difference in rank sum [2, 5]: 3.55
- Clinical Score, Significant? P < 0.05? [2, 5]: No
- Clinical score, Mean ([2]; day 8, group mean n=10): 5.50
- Clinical score ([2]; day 8, individual animal): 0 (5×) and 15 and 10 (4×)
- Clinical score, Mean ([2]; day 11, group mean n=10): 19.60
- Clinical score ([2]; day 11, individual animal): 12 (2×) and 34 and 28 and 4 and 15 and 43 and 11 and 10 and 27
- Clinical score, Mean ([2]; day 12, group mean n=10): 37.10
- Clinical score ([2]; day 12, individual animal): 32 and 50 (2×) and 45 and 27 and 35 and 26 and 20 and 34 and 52
- Clinical score, Mean ([2]; day 13, group mean n=10): 35.50
- Clinical score ([2]; day 13, individual animal): 32 and 50 and 45 (2×) and 21 and 35 and 30 and 15 and 34 and 48
- Clinical score, Mean ([2]; day 15, group mean n=10): 31.50
- Clinical score ([2]; day 15, individual animal): 32 and 49 and 21 and 48 and 25 and 45 and 15 and 10 and 24 and 46
- Clinical score, Mean ([2]; day 19, group mean n=10): 28.40
- Clinical score ([2]; day 19, individual animal): 32 and 48 and 34 and 25 and 5 and 45 and 20 and 10 and 26 and 37
- Clinical score, Mean ([2]; day 22, group mean n=10): 25.70
- Clinical score ([2]; day 22, individual animal): 32 and 41 and 34 and 18 (3×) and 40 and 10 and 23 and 26
- Day (of Max Clin Score), Mean ([2]; group line 'Mean', day of study): 12.00
- Max Clin Score, Mean ([2]; group mean n=10): 38.60
- Max Clin Score ([2]; individual animal): 32 and 50 (2×) and 45 and 48 and 35 and 30 and 20 and 34 and 52
- Day (of Max Clin Score) ([2]; individual animal, day of study): 12 (8×) and 22 and 16
- Mean Maximum Clinical Score ([2]; scored from 0 to 60, sum of 4 limbs, vehicle 45.4): 39.6^ns
- Mean Disease Burden ([3]; AUC of combined footpad volume over baseline, days 8 to 22, group mean, vehicle 1.93): 0.74**
- Total Disease, 95% CI of diff [3, 6]: 0.441 to 1.94
- Total Disease, Mean Diff. [3, 6]: 1.19
- Total Disease, Significant? P < 0.05? [3, 6]: Yes
- Total Disease, Summary [3, 6]: ** (**= P < 0.01)
- Total Disease, q [3, 6]: 3.9
- Hind Limb Volume, 95% CI of diff [3, 7]: 0.02587 to 0.1370
- Hind Limb Volume, Mean Diff. [3, 7]: 0.08143
- Hind Limb Volume, Significant? P < 0.05? [3, 7]: Yes
- Hind Limb Volume, Summary [3, 7]: ** (**= P < 0.01)
- Hind Limb Volume, q [3, 7]: 3.674
- Total Footpad Thickness, Day of Study 8 ([3]; group mean, n 10): 0.35 mL
- Total Footpad Thickness, Day of Study 8 ([3]; individual animals (A# 1-10)): 0.41 mL and 0.4 mL and 0.38 mL and 0.37 mL and 0.35 mL and 0.34 mL and 0.32 mL and 0.31 mL and 0.3 mL (2×)
- Total Footpad Thickness, Day of Study 11 ([3]; group mean, n 10): 0.44 mL
- Total Footpad Thickness, Day of Study 11 ([3]; individual animals (A# 1-10)): 0.49 mL and 0.44 mL (2×) and 0.37 mL and 0.38 mL and 0.39 mL and 0.4 mL (2×) and 0.45 mL and 0.41 mL
- Total Footpad Thickness, Day of Study 12 ([3]; group mean, n 10): 0.44 mL
- Total Footpad Thickness, Day of Study 12 ([3]; individual animals (A# 1-10)): 0.58 mL and 0.44 mL and 0.35 mL and 0.42 mL and 0.48 mL and 0.49 mL and 0.45 mL and 0.39 mL (2×) and 0.4 mL
- Total Footpad Thickness, Day of Study 13 ([3]; group mean, n 10): 0.42 mL
- Total Footpad Thickness, Day of Study 13 ([3]; individual animals (A# 1-10)): 0.58 mL and 0.41 mL (2×) and 0.36 mL and 0.33 mL and 0.49 mL and 0.39 mL and 0.35 mL and 0.43 mL and 0.4 mL
- Total Footpad Thickness, Day of Study 15 ([3]; group mean, n 10): 0.38 mL
- Total Footpad Thickness, Day of Study 15 ([3]; individual animals (A# 1-10)): 0.45 mL and 0.48 mL and 0.34 mL and 0.37 mL and 0.43 mL and 0.41 mL and 0.33 mL (2×) and 0.32 mL and 0.3 mL
- Total Footpad Thickness, Day of Study 19 ([3]; group mean, n 10): 0.42 mL
- Total Footpad Thickness, Day of Study 19 ([3]; individual animals (A# 1-10)): 0.61 mL and 0.43 mL and 0.4 mL and 0.47 mL (2×) and 0.32 mL and 0.42 mL and 0.35 mL and 0.33 mL and 0.38 mL
- Total Footpad Thickness, Day of Study 22 ([3]; group mean, n 10): 0.38 mL
- Total Footpad Thickness, Day of Study 22 ([3]; individual animals (A# 1-10)): 0.55 mL and 0.41 mL (2×) and 0.34 mL (2×) and 0.39 mL and 0.36 mL (3×) and 0.32 mL
- % Disease Suppression ([3]; group mean, n 10): 61.66%
- % Disease Suppression ([3]; individual animals (A# 1-10)): 16.3% and 74.3% and 109.8% and 83.9% and 52.3% and 49.7% and 69.4% and 70.2% and 29.0% and 63.7%
- Total Disease Burden (AUC) ([3]; group mean, n 10): 0.74
- Total Disease Burden (AUC) ([3]; individual animals (A# 1-10)): 1.62 and 0.56 and −0.19 and 0.35 and 0.92 and 0.97 and 0.59 and 0.58 and 1.37 and 0.70
- Maximum Δ Mean Volume ([3]; mean combined foot pad volume, day 8 vs median day of maximal swelling, vehicle 0.21): 0.13** ml
- % Disease Suppression (vs Vehicle) ([3]; percent decrease in total disease burden relative to vehicle): 61.7%
- Cartilage, Difference in rank sum [4, 5]: −1.5
- Cartilage, Significant? P < 0.05? [4, 5]: No
- Composite, Difference in rank sum [4, 5]: 2.1
- Composite, Significant? P < 0.05? [4, 5]: No
- Exostosis, Difference in rank sum [4, 5]: 5.8
- Exostosis, Significant? P < 0.05? [4, 5]: No
- Inflammation, Difference in rank sum [4, 5]: 3.6
- Inflammation, Significant? P < 0.05? [4, 5]: No
- Pannus, Difference in rank sum [4, 5]: 0.3
- Pannus, Significant? P < 0.05? [4, 5]: No
- Composite Histopathaligy Score ([4]; group mean): 6.0 ± 2.1
- Score From H & E, Bone Resorption ([4]; group mean): 1.0 ± 0.4
- Score From H & E, Cartilage Damage ([4]; group mean): 0.7 ± 0.3
- Score From H & E, Inflammation ([4]; group mean): 1.5 ± 0.5
- Score From H & E, Pannus ([4]; group mean): 1.4 ± 0.5
- Score From H & E, Periosteal Exostotic Changes ([4]; group mean): 1.4 ± 0.8
- Score From H & E, Bone Resorption [4, 8]: 1 and 0 (6×) and 3 (3×)
- Score From H & E, Cartilage Damage [4, 8]: 1 (3×) and 0 (5×) and 2 (2×)
- Score From H & E, Inflammation [4, 8]: 1 (4×) and 3 (3×) and 0 (2×) and 2
- Score From H & E, Pannus [4, 8]: 1 and 0 (5×) and 4 (2×) and 2 (2×)
- Score From H & E, Periosteal Exostotic Changes [4, 8]: 4 and 0 (6×) and 1 and 3 (2×)
- Composite Histopathaligy Score [4, 8]: 11 (2×) and 0 (5×) and 16 and 15 and 1
- Bone Resorption ([4]; histopathology summary, graded 1-5, vehicle 0.6 ± 0.3): 1.0 ± 0.4^ns
- Pannus ([4]; histopathology summary, graded 1-5, vehicle 1.0 ± 0.3): 1.4 ± 0.5^ns
- Inflammation ([4]; histopathology summary, graded 1-5, vehicle 2.0 ± 0.5): 1.5 ± 0.5^ns
- Exostosis ([4]; histopathology summary, graded 1 to 5, vehicle 2.6 ± 0.5): 1.4 ± 0.6^ns
- Cartilage Damage ([4]; histopathology summary, vehicle 0.5 ± 0.2): 0.7 ± 0.3^ns
- Composite Score ([4]; histopathology summary, vehicle 6.7 ± 1.7): 6.0 ± 2.1^ns
